Experimental data: US9512140B2, “(Thieno[2,3-b][1,5]benzoxazepin-4-yl)piperazin-1-yl compounds as dual activity H1 inverse agonists/5-HT2A antagonists” (priority 2011, dated 2016)
Where a name gives a salt, the structure may show the parent alone.

What was measured:
Rats = test: Sleep and behavioral monitoring in rats (EEG, EMG, motion); assay type: in vivo
Description: The compound of the present invention is tested in rats for its ability to increase the amount of sleep or decrease sleep interruption or both without undesired effects such as inhibition of REM sleep, waking motor impairment, and/or rebound insomnia. Test animals are continuously monitored by electro-encephalograms (EEG), electromyograms (EMG), and motion to measure cumulative nonREM sleep, cumulative total sleep, average sleep bout duration, longest sleep bout duration, rebound insomnia. REM sleep inhibition and locomotor activity intensity during wakefulness. Methods for such studies are known in the art (see for example methods described in Edgar D M, Seidel W F. Modafinil induces wakefulness without intensifying motor activity or subsequent rebound hypersomnolence in the rat. J Pharmacology & Experimental Therapeutics 1997; 283: 757-769; van Gelder R N, Edgar D M, Dement W C. Real-time automated sleep scoring: validation of a microcomputer-based system for mice. Sleep 1991, 14: 48-55; and Gross B A, Walsh C M, Turakhia A A, Booth V, Mashour G A, Poe G R. Open-source logic-based automated sleep scoring software using electrophysiological recordings in rats. J Neurosci Methods. 2009; 184(1):10-8.) Studies are conducted as follows:
Adult, male Wistar rats (approximately 270-300 g at time of surgery) are surgically fitted for chronic recording of EEG, EMG, and motion as follows: Rats are surgically prepared with a cranial implant consisting of four stainless steel screws for EEG recording (two frontal [3.9 mm anterior from bregma, and ±2.0 mm mediolaterally] and two occipital [6.4 mm posterior from bregma, ±5.5 mm mediolaterally]), and with two Teflon-coated stainless steel wires for EMG recording (positioned under the nuchal trapezoid muscles). All leads are soldered to a miniature connector (Microtech, Boothwyn, Pa.) prior to surgery. The implant assembly is affixed to the skull by the combination of the stainless steel EEG recording screws, cyanoacrylate applied between the implant connector and skull, and dental acrylic. Locomotor activity is monitored via a miniature transmitter (Minimitter PDT4000G, Philips Respironics, Bend, Oreg.) surgically placed into the abdomen. At least 3 weeks are allowed for recovery.
Each rat is housed individually within a microisolator cage modified with an inserted polycarbonate filter-top riser to allow more vertical headroom. A flexible cable that minimally restricts movement is connected at one end to a commutator afixed to the cage top and at the other end to the animal's cranial implant. Each cage is located within separate, ventilated compartments of a stainless steel sleep-wake recording chamber. Food and water are available ad libitum and the ambient temperature is maintained at about 23±1° C. A 24-hr light-dark cycle (LD 12:12) using fluorescent light is maintained throughout the study. Relative humidity averages approximately 50%. Animals are undisturbed for at least 30 hrs before and after each treatment.
The vehicle (placebo, methylcellulose 15 centipoise 0.25% in water) or one of the test compound dose levels is administered orally at 1 mL/kg pseudo-randomly such that no rat receives the same treatment twice, and no rat receives more than two of the 8 treatments in any one study. Each rat is removed from its cage for about a minute to be weighed and treated. At least 6 days “washout” period precede and follow each treatment. […]

Plasma clearance, dog = assay type: in vivo; conditions: male, Beagle, 1 mg/kg, intravenous, 1 mL/kg of 1.0 mg/mL
Description: Male Beagle dogs (body weight range 10-12 kg) are obtained from Marshall Bioresources, USA. Test compound is administered intravenously in solution (1 mL/kg) in 20% Captisol® in 22.5 mM phosphate buffer, pH 2, at a final drug concentration of 1.0 mg/mL (free base equivalents). Blood samples are obtained from the jugular vein over 24 hr. Samples of plasma are obtained by centrifugation and stored frozen (−20° C.) prior to analysis. Frozen plasma samples are thawed to room temperature for bioanalysis of concentrations of test compound. A related internal standard compound in acetonitrile/methanol (1:1, v/v) is added to all samples of plasma (1:1, v/v). The samples are centrifuged to remove precipitated protein prior to analysis. The supernatants are analysed by injection and rapid gradient elution on a Javelin Betasil C18 column (20×2.1 mm cartridge, Mobile phase A: Water/1 M NH4HCO3, 2000:10 v/v, Mobile Phase B: MeOH/1 M NH4HCO3, 2000:10 v/v). The eluted analytes are detected by LC-MS-MS analysis using a Sciex API 4000 triple quadrupole mass spectrometer. Concentrations of compound are determined from standards prepared and analysed under identical conditions. Clearance is calculated using non-compartmental analysis in Watson 7.4, Thermo Fisher Scientific, Inc.

[1] = molecular target: T1, recombinant H1 receptor (human) (Homo sapiens, UniProt P35367); test: H1 competition binding assay ([3H]-Pyrilamine, SPA)
T1 construct: expressed in transfected cells; host or cells: HEK-293 (membranes)
Description: [^3H]-Pyrilamine binding experiments are carried out in SPA (scintillation proximity assay) 96-well format. Membranes used in this assay are prepared from HEK-293 cells stably expressing recombinant H1 receptor (human). The incubation is initiated by the addition of a mixture of WGA PVT SPA beads (1 mg/well, Perkin Elmer (MA, USA) RPNQ0001) and 3 μg membranes to assay buffer (67 mM Tris; pH 7.6) containing 3.5 nM [^3H]-Pyrilamine and varying concentrations of the test compound (10 point concentration response curves). Non-specific binding is determined in the presence of 10 μM Triprolidine. Samples are incubated for 4 hr. at room temperature (22° C.) and then read in a Microbeta Trilux.
Curves are evaluated using a 4-parameter logistic nonlinear equation to obtain the concentration of competitor causing 50% inhibition of radioligand binding (IC50). Equilibrium dissociation constants (Ki) are calculated according to the equation Ki=IC50/(1+L/Kd), where L equals the concentration of radioligand used in the experiment and Kd equals the equilibrium dissociation constant of the radioligand for the receptor, determined from standard saturation analysis or homologous competition experiments. Reported values for Ki, where n values are indicated, are shown as geometric mean±the standard error of the mean (SEM), with the number of replicate determinations indicated by n. […]

[2] = threshold efficacy dose, 4 parameter logistic regression, 6 hr. after treatment, rat PO

T1 sequence (P35367 whole entry): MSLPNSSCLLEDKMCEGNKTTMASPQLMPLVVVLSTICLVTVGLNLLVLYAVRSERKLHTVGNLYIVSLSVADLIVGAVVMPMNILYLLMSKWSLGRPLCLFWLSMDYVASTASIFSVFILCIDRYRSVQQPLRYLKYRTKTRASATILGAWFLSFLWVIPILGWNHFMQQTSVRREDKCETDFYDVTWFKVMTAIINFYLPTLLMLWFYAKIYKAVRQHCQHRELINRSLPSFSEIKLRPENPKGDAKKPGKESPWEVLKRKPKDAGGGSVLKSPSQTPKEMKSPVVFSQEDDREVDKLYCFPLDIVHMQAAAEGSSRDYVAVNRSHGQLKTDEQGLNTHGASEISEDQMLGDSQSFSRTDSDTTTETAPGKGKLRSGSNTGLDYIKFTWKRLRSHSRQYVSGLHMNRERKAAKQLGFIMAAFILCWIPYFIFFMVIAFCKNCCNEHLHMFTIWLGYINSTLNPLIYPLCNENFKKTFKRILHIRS

## Cc1ccc2c(c1)Oc1sc(C)cc1C(N1CCN(CC(C)(C)C(=O)O)CC1)=N2 [Example 2, 3-[4-(2,8-Dimethylthieno[2,3-b][1,5]benzoxazepin-4-yl)piperazin-1-yl]-2,2-dimethyl-propanoic acid dihydrochloride]
Rats; 0.25 mg/kg and 0.025 mg/kg, rat
  apparent REM sleep inhibition, statistical significance: not statistically significant
Rats; 3 mg/kg, rat
  REM sleep inhibition against the threshold value (−10 min.): exceeded the threshold value
  cumulative NREM sleep time (in words): significantly increase
  cumulative total sleep time (in words): significantly increase
  inhibition of locomotor intensity (LMI) (in words): without significant
  rebound insomnia (in words): without significant rebound insomnia
Rats; rat sleep study
  REM sleep inhibition (overall conclusion, in words): cannot be ruled out
Rats; rat, efficacy dose 0.26 mg/kg
  rebound insomnia or reduction in LMI within 10 times the most conservative efficacy dose: no undesired occurences of REM rebound insomnia, or reduction in LMI are observed
Rats; [2]
  Estimated efficacy dose, NREM accumulation = 30 min.: 0.05 mg/kg
  Estimated efficacy dose, average sleep bout (1.5-fold increase): 0.21 mg/kg
  Estimated efficacy dose, longest sleep bout (1.75-fold increase): 0.26 mg/kg
  Estimated efficacy dose, total sleep accumulation = 25 min.: 0.07 mg/kg
Plasma clearance, dog
  clearance: 2.8 mL/min/kg
[1]
  Ki: 131 nM
